Test results: article PMC3673989, “Effect of Single Amino Acid Substitution Observed in Cancer on Pim-1 Kinase Thermodynamic Stability and Structure” (PLoS ONE, 2013)
Blank lines part the entries; values can stand above or below the compound they belong to.

How the values were obtained:
Pim-1 wild type [1] = biological target: T1, Pim-1 wild type (Homo sapiens, UniProt P11309); assay type: biochemical; settings: ATP as substrate, wild type protein
T1 construct: hexahistidine tag (TEV-cleavable) (cleaved yes); made in house; host or cells: E. coli BL21(DE3)
Procedure: (§1) Phosphorylation reaction was monitored using a coupled-enzyme assay in which ADP production is coupled to NADH oxidation by pyruvate kinase and lactate dehydrogenase. […] In the Caliper mobility shift assays kinase reactions were analyzed by microfluidic capillary electrophoresis. The final assay buffer was 50 mM HEPES, pH 7.5, 1 mM DTT, 0.02% Tween 20, 0.02% BSA, 10 mM beta-glycerophosphate, 0.01 mM Na3VO4, 0.6% DMSO, 8 mM MgCl2, 2 µM peptide and 0.2 nM kinase. The reactions were started by addition of substrate mix consisting of ATP and peptide substrate to kinase and inhibitor solution. ATP concentrations were adjusted to the Kmvalues of the specific Pim enzyme. After incubation for 60 min at 30°C reactions were terminated with 100 mM HEPES pH 7.5, 5% DMSO, 0.1% coating reagent (Caliper Lifescience) 10 mM EDTA pH 8.0, 0.015% Brij35. Levels of substrate and product were quantified by measuring the laser-induced fluorescence intensities of fluorescein labels of the peptide.

Pim-1 E142D = biological target: T2, Pim-1 E142D (Homo sapiens, UniProt P11309, E142D); assay: Inhibitor binding by temperature shift assay (SYPRO Orange); settings: Pim-1 E142D 2 µM, compound 10 µM
T2 construct: hexahistidine tag (TEV-cleavable) (cleaved yes); made in house; host or cells: E. coli BL21(DE3)
Procedure: (§2) Thermal melting experiments were carried out using an Mx3005p Real Time PCR machine (Stratagene). Proteins were buffered in 10 mM HEPES pH 7.5, 500 mM NaCl and assayed in a 96-well plate at a final concentration of 2 µM in 20 µl volume. Compounds were added at a final concentration of 10 µM. SYPRO Orange (Molecular Probes) was added as a fluorescence probe at a dilution of 1∶1000. […] Data was analysed as previously described.

Pim-1 wild type [2] = biological target: T1, Pim-1 wild type; assay: as above; settings: Pim-1 wild type 2 µM, compound 10 µM
Procedure: as §2

Pim-1 E124Q = biological target: T3, Pim-1 E124Q (Homo sapiens, UniProt P11309, E124Q); assay: as above; settings: Pim-1 E124Q 2 µM, compound 10 µM
T3 construct: hexahistidine tag (TEV-cleavable) (cleaved yes); made in house; host or cells: E. coli BL21(DE3)
Procedure: as §2

Pim-1 E135K = biological target: T4, Pim-1 E135K (Homo sapiens, UniProt P11309, E135K); assay: as above; settings: Pim-1 E135K 2 µM, compound 10 µM
T4 construct: hexahistidine tag (TEV-cleavable) (cleaved yes); made in house; host or cells: E. coli BL21(DE3)
Procedure: as §2

Pim-1 Y53H [3] = biological target: T5, Pim-1 Y53H (Homo sapiens, UniProt P11309, Y53H); assay: as above; settings: Pim-1 Y53H 2 µM, compound 10 µM
T5 construct: hexahistidine tag (TEV-cleavable) (cleaved yes); made in house; host or cells: E. coli BL21(DE3)
Procedure: as §2

Pim-1 Y53H [4] = biological target: T5, Pim-1 Y53H; assay: Caliper mobility shift kinase assay; assay type: biochemical; settings: Y53H relative to Pim-1 wild type
Procedure: as §1

Pim-1 variants = assay: Caliper mobility shift kinase assay; assay type: biochemical, human; settings: exception K00487 and K00207a for Y53H
Procedure: as §1

T3 sequence (P11309 whole entry E124Q): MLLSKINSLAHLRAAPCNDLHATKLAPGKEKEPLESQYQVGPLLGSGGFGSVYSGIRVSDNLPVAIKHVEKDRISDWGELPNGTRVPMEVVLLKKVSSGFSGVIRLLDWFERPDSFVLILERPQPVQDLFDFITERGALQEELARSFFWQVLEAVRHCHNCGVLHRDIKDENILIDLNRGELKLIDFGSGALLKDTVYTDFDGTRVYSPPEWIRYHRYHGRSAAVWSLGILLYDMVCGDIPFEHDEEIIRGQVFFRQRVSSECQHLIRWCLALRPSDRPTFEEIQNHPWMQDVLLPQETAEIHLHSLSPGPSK
T4 sequence (P11309 whole entry E135K): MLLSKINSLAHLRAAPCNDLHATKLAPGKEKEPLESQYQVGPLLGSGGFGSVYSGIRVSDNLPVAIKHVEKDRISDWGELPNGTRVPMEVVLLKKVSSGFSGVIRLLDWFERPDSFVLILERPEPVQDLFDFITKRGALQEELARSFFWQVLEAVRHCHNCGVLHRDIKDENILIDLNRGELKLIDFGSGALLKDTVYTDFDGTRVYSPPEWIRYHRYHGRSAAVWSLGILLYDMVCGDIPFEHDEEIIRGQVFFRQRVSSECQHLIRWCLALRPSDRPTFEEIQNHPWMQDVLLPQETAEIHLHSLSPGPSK
T2 sequence (P11309 whole entry E142D): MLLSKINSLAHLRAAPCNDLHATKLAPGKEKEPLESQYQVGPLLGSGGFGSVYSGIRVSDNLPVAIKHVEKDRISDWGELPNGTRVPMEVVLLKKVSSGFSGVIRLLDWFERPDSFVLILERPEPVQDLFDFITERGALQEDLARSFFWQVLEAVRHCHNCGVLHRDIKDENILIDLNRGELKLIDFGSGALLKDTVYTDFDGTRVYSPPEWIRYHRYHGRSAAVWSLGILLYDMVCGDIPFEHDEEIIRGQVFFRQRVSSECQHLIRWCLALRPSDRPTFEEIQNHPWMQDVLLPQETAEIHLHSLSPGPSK
T1 sequence (P11309 whole entry): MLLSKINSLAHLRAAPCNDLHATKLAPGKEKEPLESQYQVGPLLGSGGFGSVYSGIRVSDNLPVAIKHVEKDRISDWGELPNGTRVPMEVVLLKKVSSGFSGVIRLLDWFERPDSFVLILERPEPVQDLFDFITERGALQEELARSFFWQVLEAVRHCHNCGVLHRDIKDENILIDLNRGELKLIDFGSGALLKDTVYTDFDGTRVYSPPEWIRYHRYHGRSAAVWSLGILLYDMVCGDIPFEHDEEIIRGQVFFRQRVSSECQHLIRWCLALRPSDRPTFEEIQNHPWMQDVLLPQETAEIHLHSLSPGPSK
T5 sequence (P11309 whole entry Y53H): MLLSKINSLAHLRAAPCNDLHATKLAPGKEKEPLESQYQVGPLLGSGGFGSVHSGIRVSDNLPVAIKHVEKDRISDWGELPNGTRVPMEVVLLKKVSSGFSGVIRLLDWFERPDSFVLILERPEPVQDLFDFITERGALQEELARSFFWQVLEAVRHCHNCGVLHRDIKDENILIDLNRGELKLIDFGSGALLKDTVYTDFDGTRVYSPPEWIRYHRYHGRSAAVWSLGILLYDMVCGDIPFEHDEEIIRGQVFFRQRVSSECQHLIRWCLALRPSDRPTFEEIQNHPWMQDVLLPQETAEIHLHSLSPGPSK

SMILES: Nc1ncnc2c1ncn2[C@@H]1O[C@H](COP(=O)(O)OP(=O)(O)OP(=O)(O)O)[C@@H](O)[C@H]1O [ATP]
Km (Pim-1 wild type [1]): 205 µM

SMILES: COCCNc1ccc2ncc(-c3cccc(Cl)c3)n2n1 [K00478]
ΔTm (Pim-1 E142D): 4.8 K | ΔTm (Pim-1 wild type [2]): 6.0 K | ΔTm (Pim-1 E124Q): 4.9 K | ΔTm (Pim-1 E135K): 5.9 K | ΔTm (Pim-1 Y53H [3]): 4.5 K

SMILES: CCC(CO)Nc1ccc2ncc(-c3cccc(OC(F)(F)F)c3)n2n1 (centres unmarked) [K00487]
fold increase of IC50 versus wild type (Pim-1 Y53H [4]): 1.8 fold | IC50 for Pim-1 variants compared with wild type (Pim-1 variants): closely similar | ΔTm (Pim-1 E142D): 8.1 K | ΔTm (Pim-1 wild type [2]): 7.7 K | ΔTm (Pim-1 E124Q): 7.6 K | ΔTm (Pim-1 E135K): 7.5 K | ΔTm (Pim-1 Y53H [3]): 7.0 K

SMILES: Clc1ccc(-c2cnc3ccc(NC4CCOCC4)nn23)cc1 [K00499]
ΔTm (Pim-1 E142D): 6.6 K | ΔTm (Pim-1 wild type [2]): 5.5 K | ΔTm (Pim-1 E124Q): 5.6 K | ΔTm (Pim-1 E135K): 6.0 K | ΔTm (Pim-1 Y53H [3]): 5.9 K

SMILES: CC(C)[C@@H](CO)Nc1ccc2ncc(-c3cccc(OC(F)(F)F)c3)n2n1 [K00512]
ΔTm (Pim-1 E142D): 8.8 K | ΔTm (Pim-1 wild type [2]): 8.4 K | ΔTm (Pim-1 E124Q): 8.5 K | ΔTm (Pim-1 E135K): 8.9 K | ΔTm (Pim-1 Y53H [3]): 8.1 K

More lines, now with the values ahead:

ΔTm (Pim-1 E142D): 6.2 K | ΔTm (Pim-1 wild type [2]): 6.1 K | ΔTm (Pim-1 E124Q): 6.1 K | ΔTm (Pim-1 E135K): 7.5 K | ΔTm (Pim-1 Y53H [3]): 5.6 K
SMILES: CC(C)[C@@H](CO)Nc1ccc2ncc(-c3cccc(Cl)c3)n2n1 [K00514]

ΔTm (Pim-1 E142D): 7.7 K | ΔTm (Pim-1 wild type [2]): 8.2 K | ΔTm (Pim-1 E124Q): 8.2 K | ΔTm (Pim-1 E135K): 9.0 K | ΔTm (Pim-1 Y53H [3]): 6.9 K
SMILES: CC(C)[C@@H](CO)Nc1ccc2ncc(-c3cccc(C(F)(F)F)c3)n2n1 [K00516]

ΔTm (Pim-1 E142D): 5.3 K | ΔTm (Pim-1 wild type [2]): 5.6 K | ΔTm (Pim-1 E124Q): 4.3 K | ΔTm (Pim-1 E135K): 6.4 K | ΔTm (Pim-1 Y53H [3]): 4.6 K
SMILES: CC(=O)c1cccc(-c2cnc3ccc(N[C@H](CO)C(C)C)nn23)c1 [K00518]

ΔTm (Pim-1 E142D): 6.4 K | ΔTm (Pim-1 wild type [2]): 6.8 K | ΔTm (Pim-1 E124Q): 5.0 K | ΔTm (Pim-1 E135K): 6.5 K | ΔTm (Pim-1 Y53H [3]): 5.5 K
SMILES: FC(F)(F)Oc1cccc(-c2cnc3ccc(NCC4CC4)nn23)c1 [K00520]

ΔTm (Pim-1 E142D): 3.3 K | ΔTm (Pim-1 wild type [2]): 5.1 K | ΔTm (Pim-1 E124Q): 3.3 K | ΔTm (Pim-1 E135K): 5.2 K | ΔTm (Pim-1 Y53H [3]): 3.3 K
SMILES: Cn1c2c(c3ccc(Cl)c(Cl)c31)C(C#N)C1(CCOCC1)NC2=O (centres unmarked) [K01741a]

ΔTm (Pim-1 E142D): 8.6 K | ΔTm (Pim-1 wild type [2]): 8.4 K | ΔTm (Pim-1 E124Q): 7.2 K | ΔTm (Pim-1 E135K): 8.2 K | ΔTm (Pim-1 Y53H [3]): 8.2 K
SMILES: CCN1CCC2(CC1)NC(=O)c1c(c3ccc(Cl)c(Cl)c3n1C)C2C#N (centres unmarked) [K01786a]
